The source of these data is patent US20230276703A1, “ORGANIC SEMICONDUCTOR MATERIAL” (The University of Tokyo, priority 2020, published 2023).

Each structure is given as a SMILES string. Where only a bound is given, the exact number is not on record here.

This data set can be described thus: Solvent solubility evaluation in o-dichlorobenzene. Format: physicochemical. The note with it: heated at 100° C., visual confirmation of dissolution, (w/Vd)×100. As to the method: Approximately 1 mg of each compound (accurate weight was w (mg)) was weighed in a sample tube, and 20 μL of o-dichlorobenzene was added thereto by using a micropipette. The sample tube was capped and heated at 100° C. by a hot plate. Whether or not the compound was dissolved was visually confirmed. When the compound was not dissolved, the operation of adding o-dichlorobenzene in an amount of 20 μL per addition until the compound was dissolved and heating to 100° C. was repeated.
The solubility (wt. %) of the compound was calculated based on the following formula. Note that V in the formula is a volume (μL) of the o-dichlorobenzene added to dissolve the compound, and d is a density (g/cm^3) of the o-dichlorobenzene.
Solubility (%)=(w/Vd)×100
Take `CCCCCCCCN1C(=O)c2cnc3c4ccc5c6c(cnc(c7ccc1c2c73)c64)C(=O)N5CCCCCCCC` [Compound (II)]: the “Solubility (%)” value is given as 0.58%. For the compound `CCCCCCCCN1C(=S)c2cnc3c4ccc5c6c(cnc(c7ccc1c2c73)c64)C(=S)N5CCCCCCCC` [Compound (III)], the “Solubility (%)” value is 0.49%. The value for `O=C1c2ccc3c4ncc5c6c(ccc(c7ncc(c2c37)C(=O)N1CCc1ccccc1)c64)C(=O)N(CCc1ccccc1)C5=O` [Compound (IX), reference compound] was <0.0007%. Take `CCCN1C(=O)c2cnc3c4c(C#N)cc5c6c(cnc(c7c(C#N)cc1c2c37)c64)C(=O)N5CCC` [Compound (VI)]: the “Solubility (%)” value is 0.027%. `CCCCCCN1C(=O)c2cnc3c4c(C#N)cc5c6c(cnc(c7c(C#N)cc1c2c37)c64)C(=O)N5CCCCCC` [Compound (VIII)]: the “Solubility (%)” value was 0.52%. Turning to `CCCCCCCCN1C(=O)c2ccc3c4ncc5c6c(ccc(c7ncc(c2c37)C1=O)c64)C(=O)N(CCCCCCCC)C5=O` [Compound (X), reference compound], the “Solubility (%)” value is listed as 0.019%.
